From publication PMC9477735, “Phosphorylation of muramyl peptides by NAGK is required for NOD2 activation” (Nature, 2022) come the findings set out here.

Assay [1] has as its target T1, N-acetylglucosamine kinase (NAGK) (Homo sapiens, UniProt Q9UJ70).
T1 construct: full-length human NAGK, recombinant from E. coli, His-MBP tag removed
Put plainly: in vitro kinase assay with [γ-32P]ATP and TLC. In kind it is biochemical.

Assay [2] deals with T1, N-acetylglucosamine kinase (NAGK). Put plainly: in vitro kinase assay with [γ-32P]ATP and TLC; LC-MS/MS; NMR of product. The assay is classed as biochemical.

Molecules are shown by their SMILES.

T1 sequence (Q9UJ70 2-344): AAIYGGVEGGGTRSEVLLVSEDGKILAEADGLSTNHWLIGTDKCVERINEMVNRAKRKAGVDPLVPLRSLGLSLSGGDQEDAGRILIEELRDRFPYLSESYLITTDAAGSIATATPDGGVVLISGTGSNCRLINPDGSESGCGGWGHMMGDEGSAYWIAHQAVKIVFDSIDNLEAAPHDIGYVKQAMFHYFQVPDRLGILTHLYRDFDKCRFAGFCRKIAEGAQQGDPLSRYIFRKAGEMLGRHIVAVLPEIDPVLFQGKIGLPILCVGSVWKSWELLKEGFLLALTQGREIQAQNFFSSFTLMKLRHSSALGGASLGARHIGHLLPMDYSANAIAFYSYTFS

For `CC(=O)N[C@H]1C(O)O[C@H](CO)[C@@H](O)[C@@H]1O` (some centres unmarked) [GlcNAc, N-acetylglucosamine], in assay [1], the “in vitro kinase assay with [γ-32P]ATP and TLC” value is recorded as “to similar levels as its bona fide substrate GlcNAc (Fig. 3b)”.
Regarding `CC(=O)N[C@H]1C(O)O[C@H](CO)[C@@H](O)[C@@H]1O[C@H](C)C(=O)N[C@@H](C)C(=O)N[C@H](CCC(=O)O)C(N)=O` (some centres unmarked) [MDP], the “in vitro kinase assay with [γ-32P]ATP and TLC; LC-MS/MS; NMR of product” value in assay [2] was “These assays revealed that NAGK readily phosphorylated MDP and the related molecule N-acetylmuramic acid (MurNAc)”.
